From ChEMBL document CHEMBL1165872, “Synthesis and molecular docking studies of 1-phenyl-4-glycosyl-dihydropyridines as potent antileishmanial agents” (Eur J Med Chem, 2010)
Values after ≈ are worked out from the molar mass of the structure shown.

How the values were obtained:
[1] = system: Leishmania donovani; assay: Antileishmanial activity against Leishmania donovani MHOM/IN/Dd8 amastigote carrying firefly luciferase gene infected in mouse J774A1 cells assessed as relative luminescence unit after 72 hrs; assay type: functional, organism-based, J774.A1
[2] = system: Leishmania donovani; assay: Antileishmanial activity against Leishmania donovani MHOM/IN/Dd8 promastigote carrying firefly luciferase gene assessed as relative luminescence unit at 40 ug/mL after 72 hrs; assay type: functional; conditions: MHOM/IN/Dd8, 72 h
[3] = system: Leishmania donovani; assay: Antileishmanial activity against Leishmania donovani MHOM/IN/Dd8 amastigote infected in hamster assessed as inhibition of amastigote multiplication at 50 mg/kg, ip for 5 days; assay type: functional; conditions: 120 h, route intraperitoneal
[4] = Selectivity index, ratio of CC50 for mouse J774A1 cells to IC50 for Leishmania donovani MHOM/IN/Dd8 amastigote; assay type: functional, J774.A1
[5] = Cytotoxicity against mouse J774A1 cells after 72 hrs by MTT assay; assay type: cell-based, J774.A1
[6] = system: Leishmania donovani; assay: Antileishmanial activity against Leishmania donovani MHOM/IN/Dd8 promastigote carrying firefly luciferase gene assessed as relative luminescence unit after 72 hrs; assay type: functional, organism-based
[7] = system: Leishmania donovani; assay: Antileishmanial activity against Leishmania donovani MHOM/IN/Dd8 amastigote infected in hamster assessed as inhibition of amastigote multiplication at 30 mg/kg, po for 5 days; assay type: functional; conditions: MHOM/IN/Dd8, 120 h
[8] = system: Leishmania donovani; assay: Antileishmanial activity against Leishmania donovani MHOM/IN/Dd8 amastigote infected in hamster assessed as inhibition of amastigote multiplication at 40 mg/kg, ip for 5 days; assay type: functional; conditions: 120 h, route intraperitoneal
[9] = Leishmania donovani, MHOM/IN/Dd8, J774.A1, 72 h, read-out: IC50
[10] = Leishmania donovani, MHOM/IN/Dd8, 72 h, read-out: IC50

| Structure (SMILES) | IC50 [1, 9] [µg/mL] | inhibition at 40 µg/mL [2] [%] | inhibition in vivo at 50 mg/kg [3] [%] | Ratio CC50/IC50 [4] | CC50 at 72 h [5] [µg/mL] | IC50 [6, 10] [µg/mL] | IC50 ([1]; j774.a1) | IC50 [6] | inhibition in vivo at 30 mg/kg [7] [%] | inhibition in vivo at 40 mg/kg [8] [%] |
| --- | --- | --- | --- | --- | --- | --- | --- | --- | --- | --- |
| COC(=O)C1=C(C)N(c2ccc(OC)cc2)C(C)=C(C(=O)OC)C1[C@@H]1O[C@H]2OC(C)(C)O[C@H]2[C@@H]1OCc1ccccc1 | 0.75 (≈ 1.29 µM) | > 80 | 26.8 | 18.93 | 14.1 (≈ 24.4 µM) | 1.94 (≈ 3.35 µM) | – | – | – | – |
| CCOC(=O)C1=C(C)N(c2ccc(OC)cc2)C(C)=C(C(=O)OCC)C1[C@@H]1O[C@H]2OC(C)(C)O[C@H]2[C@@H]1OCc1ccccc1 | 8.08 (≈ 13.3 µM) | > 80 | – | 7.42 | 59.9 (≈ 98.6 µM) | 1.65 (≈ 2.72 µM) | – | – | – | – |
| COC(=O)C1=C(C)N(c2ccc(Cl)cc2)C(C)=C(C(=O)OC)C1[C@@H]1O[C@H]2OC(C)(C)O[C@H]2[C@@H]1OCc1ccccc1 | 3.8 (≈ 6.51 µM) | > 80 | – | 1.109 | 4.22 (≈ 7.23 µM) | 1.86 (≈ 3.18 µM) | – | – | – | – |
| COC(=O)C1=C(C)N(c2ccc(N)cc2)C(C)=C(C(=O)OC)C1[C@@H]1O[C@H]2OC(C)(C)O[C@H]2[C@@H]2OC(C)(C)O[C@@H]21 | – | > 80 | – | – | – | – | Not Active | Not Active | – | – |
| COC(=O)C1=C(C)N(c2ccc(Cl)c(Cl)c2)C(C)=C(C(=O)OC)C1[C@@H]1O[C@H]2OC(C)(C)O[C@H]2[C@@H]1O | 10.1 (≈ 19.2 µM) | > 80 | – | 2.96 | 29.9 (≈ 56.7 µM) | 3.72 (≈ 7.04 µM) | – | – | – | – |
| CCOC(=O)C1=C(C)N(c2ccc(C)cc2)C(C)=C(C(=O)OCC)C1[C@@H]1O[C@H]2OC(C)(C)O[C@H]2[C@@H]1OC | – | > 80 | – | – | – | – | Not Active | Not Active | – | – |
| COC(=O)C1=C(C)N(c2ccc(Cl)cc2)C(C)=C(C(=O)OC)C1[C@@H]1O[C@H]2OC(C)(C)O[C@H]2[C@@H]1OC | 19.1 (≈ 37.5 µM) | > 80 | – | 4.32 | 82.4 (≈ 162 µM) | 1.94 (≈ 3.82 µM) | – | – | – | – |
| COC(=O)C1=C(C)N(c2ccc(F)cc2)C(C)=C(C(=O)OC)C1[C@@H]1O[C@H]2OC(C)(C)O[C@H]2[C@@H]1OCc1ccccc1 | – | > 80 | – | – | – | 3.67 (≈ 6.47 µM) | Not Active | – | – | – |
| COC(=O)C1=C(C)N(c2ccc(C)cc2)C(C)=C(C(=O)OC)C1[C@@H]1O[C@H]2OC(C)(C)O[C@H]2[C@@H]1OCc1ccccc1 | 4.89 (≈ 8.68 µM) | > 80 | – | – | 7.66 (≈ 13.6 µM) | 3.62 (≈ 6.42 µM) | – | – | – | – |
| COC(=O)C1=C(C)N(c2ccc(OC)cc2)C(C)=C(C(=O)OC)C1[C@@H]1O[C@H]2OC(C)(C)O[C@H]2[C@@H]1OC | 4.42 (≈ 8.78 µM) | > 80 | – | 4.21 | 18.6 (≈ 37 µM) | 12.4 (≈ 24.6 µM) | – | – | – | – |
| COC(=O)C1=C(C)N(c2ccc(Br)cc2)C(C)=C(C(=O)OC)C1[C@@H]1O[C@H]2OC(C)(C)O[C@H]2[C@@H]1OC | 3.57 (≈ 6.46 µM) | > 80 | 43.9 | 13.58 | 48.5 (≈ 87.8 µM) | 0.88 (≈ 1.59 µM) | – | – | – | – |
| COC(=O)C1=C(C)N(c2ccc(C)cc2)C(C)=C(C(=O)OC)C1[C@@H]1O[C@H]2OC(C)(C)O[C@H]2[C@@H]1OC | 4.45 (≈ 9.13 µM) | > 80 | 58.8 | 7.43 | 33.1 (≈ 67.8 µM) | 1.74 (≈ 3.57 µM) | – | – | – | – |
| CCOC(=O)C1=C(C)N(c2ccccc2OC)C(C)=C(C(=O)OCC)C1[C@@H]1O[C@H]2OC(C)(C)O[C@H]2[C@@H]1OC | 6.18 (≈ 11.6 µM) | > 80 | 49.7 | 8.04 | 49.7 (≈ 93.5 µM) | 0.22 (≈ 0.414 µM) | – | – | – | – |
| COC(=O)C1=C(C)N(c2ccc(OC)cc2)C(C)=C(C(=O)OC)C1[C@@H]1O[C@H]2OC(C)(C)O[C@H]2[C@@H]2OC(C)(C)O[C@@H]21 | – | > 80 | – | – | – | – | Not Active | Not Active | – | – |
| COC(=O)C1=C(C)N(c2ccc(Cl)cc2)C(C)=C(C(=O)OC)C1[C@@H]1O[C@H]2OC(C)(C)O[C@H]2[C@@H]2OC(C)(C)O[C@@H]21 | 14.3 (≈ 25.4 µM) | > 80 | – | 1.06 | 15.2 (≈ 27 µM) | 4.17 (≈ 7.39 µM) | – | – | – | – |
| COC(=O)C1=C(C)N(c2ccc(Cl)cc2)C(C)=C(C(=O)OC)C1[C@@H]1O[C@H]2OC(C)(C)O[C@H]2[C@@H]1O | 3.85 (≈ 7.79 µM) | > 80 | 44.9 | 9.21 | 35.5 (≈ 71.9 µM) | 0.86 (≈ 1.74 µM) | – | – | – | – |
| CCCCCCCCCCCCCCCCOP(=O)([O-])OCC[N+](C)(C)C [MILTEFOSINE] | 12.1 (≈ 29.7 µM) | – | – | 2.58 | 31.3 (≈ 76.8 µM) | 0.643 (≈ 1.58 µM) | – | – | 95 | – |
| N=C(N)c1ccc(OCCCCCOc2ccc(C(=N)N)cc2)cc1 [PENTAMIDINE] | 3.59 (≈ 10.5 µM) | – | – | 1.08 | 3.91 (≈ 11.5 µM) | 3.23 (≈ 9.49 µM) | – | – | – | 92 |
